# Assay results taken from patent US10106532B2, “Inhibitors of beta-hydroxylase for treatment of cancer” (MIDWESTERN UNIVERSITY, priority 2012, dated 2018).
# Entries after “also recorded” stand apart in the source; their conditions may differ.
# Experiments:
# FOCUS HCC cells = experiment: colony formation assay; assay type: cell-based, human; settings: 5 μM
# Procedure: A MTT assay was performed to evaluate the effect of MO-1-1100 on cell proliferation and viability. MTT is reduced to purple formazan in living cells. FOCUS cells were used as a high ASPH expressing human HCC cell line. […] The MTT assay measures cellular metabolic activity via NAD(P)H-dependent cellular oxidoreductase enzymes. […] In order to evaluate the effect of long-term exposure of MO-1-1100, the colony formation assay (an assay of malignant potential and phenotype) in which cells were treated with inhibitor for 3 weeks was performed.
# ASPH = biological target: T1, ASPH (Homo sapiens, UniProt Q12797); experiment: binding to ASPH by isothermal titration calorimetry
# T1 sequence (Q12797 1-758): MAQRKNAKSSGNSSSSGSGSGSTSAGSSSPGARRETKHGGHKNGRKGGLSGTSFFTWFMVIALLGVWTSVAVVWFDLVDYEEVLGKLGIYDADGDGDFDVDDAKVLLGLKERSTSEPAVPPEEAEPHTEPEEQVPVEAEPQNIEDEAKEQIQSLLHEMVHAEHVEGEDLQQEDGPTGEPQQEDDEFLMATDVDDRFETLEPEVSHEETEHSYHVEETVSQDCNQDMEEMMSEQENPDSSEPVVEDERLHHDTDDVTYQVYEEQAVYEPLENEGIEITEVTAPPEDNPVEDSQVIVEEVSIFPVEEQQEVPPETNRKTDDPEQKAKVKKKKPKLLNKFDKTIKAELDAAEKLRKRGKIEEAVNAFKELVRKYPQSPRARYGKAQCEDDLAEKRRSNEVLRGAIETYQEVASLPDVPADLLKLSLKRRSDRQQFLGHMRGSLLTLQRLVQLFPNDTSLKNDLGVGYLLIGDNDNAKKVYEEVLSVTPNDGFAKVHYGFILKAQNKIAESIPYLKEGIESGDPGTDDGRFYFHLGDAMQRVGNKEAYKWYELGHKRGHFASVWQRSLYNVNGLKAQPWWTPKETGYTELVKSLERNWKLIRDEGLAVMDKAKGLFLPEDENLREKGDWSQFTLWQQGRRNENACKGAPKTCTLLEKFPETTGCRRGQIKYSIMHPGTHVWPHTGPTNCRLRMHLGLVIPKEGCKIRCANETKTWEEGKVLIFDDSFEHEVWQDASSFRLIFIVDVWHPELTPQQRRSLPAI
# Source text: In the second step arylhydroxytetronimide was sulfonylated with phenylmethansulfonyl chloride in dry tetrahydrofuran to yield compounds of formula 1 (shown below). Compounds were characterized by 1H and 13C nuclear magnetic resonance, high resolution mass spectroscopy, high performance liquid chromatography, infra-red spectroscopy, melting point, elemental analysis and binding to ASPH by isothermal titration calorimetry.
# Candidate parent compounds were selected as inhibitors for β-hydroxylase activity based on crystal structure of the catalytic site in the C-terminal region of ASPH and computer assisted drug design.
# HepG2 = experiment: cell viability; assay type: cell-based, human; settings: 5 μM
# NIH 3T3 cells = experiment: cell viability; assay type: cell-based, mouse; settings: 5 μM, NIH 3T3 cells with no expression of ASPH
# FOCUS cells [1] = experiment: directional motility, Boyden chamber-type culture inserts; assay type: cell-based, human; settings: 5 μM pretreatment for 24 hours, migration 30 min
# Procedure: (§1) The β-hydroxylase activity is required for ASPH to mediate its effects on cell motility. Directional motility was measured using Boyden chamber-type culture inserts equipped with porous membranes. FOCUS cells were pretreated with 5 μM of MO-1-1100 and MO-1-500 β-hydroxylase inhibitor for 24 hours, and then placed into the upper chamber. Migration was allowed to proceed for 30 min. ATPLite was used to quantify viable cell density. The cells in the upper well and upper surface of membrane reflects the number of non-migrating cells, luminescence measured at the bottom surface of the membrane reflects the number of migrating and non-adherent cells and luminescence measured in the bottom well was reflect migrating and non-adherent cells. […] Cell invasiveness was assessed by invasion assay using matrigel coated membrane, in which cells were allowed to proceed for 6 hours; those found adhered on the bottom surface of membrane were regarded as invading cells.
# Huh7 = experiment: cell viability; assay type: cell-based, human; settings: 5 μM
# FOCUS cells [2] = experiment: anchorage independent growth in soft agar; assay type: cell-based, human; settings: 3 weeks of culture
# Procedure: The effect of MO-1-1100 on anchorage independent growth in soft agar was evaluated. The ability of forming colonosphere in soft agar is considered to be a rigid test for tumorigenic potential. ASPH expression results in cells acquiring the ability to form colonospheres in soft agar. […] In order to evaluate the effect of ASPH inhibitor for anchorage independent colony formation, FOCUS cells were incubated in soft agar with or without this ASPH enzymatic inhibitor. After 3 weeks incubation, MO-1-1100 reduced colonosphere formation of FOCUS cells (FIG. 9A). […] This assay is a standard method to monitor malignant growth that reflects the ability to form tumors that grow aggressively in vivo.
# Hep3B = experiment: cell viability; assay type: cell-based, human; settings: 5 μM
# FOCUS cells [3] = experiment: invasion assay using matrigel coated membrane; assay type: cell-based, human; settings: 6 hours, compared to DMSO control
# Procedure: as §1
smiles,measurement,setting,value
NC1=C(OS(=O)(=O)Cc2ccccc2)C(=O)C(c2ccc(Cl)cc2)O1 (racemic) [MO-1-1100],colony formation,FOCUS HCC cells,reduced colony formation; also recorded: strikingly inhibited
same,"colony formation, inhibition rate",FOCUS HCC cells; 3 weeks,36.8%
same,ASPH binding,ASPH,confirmed to demonstrate ASPH binding
same,"cell viability, inhibition rate",HepG2,59%
same,decreased cell viability,NIH 3T3 cells,not
same,cell migration / motility,FOCUS cells [1],significantly inhibited
same,migrating and adherent cells,FOCUS cells [1],significantly reduced
same,population of non-adherent cells,FOCUS cells [1],unchanged
same,total migrated cells,FOCUS cells [1],reduced
same,"cell viability, inhibition rate",Huh7,50%
same,number and size of colonies in soft agar,FOCUS cells [2],dose-dependent and highly significant reduction; also recorded: reduces
same,"cell viability, inhibition rate",Hep3B,60%
same,invasiveness,FOCUS cells [3],significantly reduced; also recorded: significantly inhibited
